Laboratory results from the METLIN SMRT retention time set (Domingo-Almenara et al. 2019).

Experiment: gradient 5% acetonitrile 3 min, to 50% in 2 min, to 85% in 15 min, held 3 min, 100 µL/min
Details: column: Zorbax Extend-C18 2.1 x 50 mm; eluents: water / acetonitrile, 0.1% formic acid
Method in brief: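 In both positive and negative ionization mode, a quadrupole time-of-flight mass spectrometer coupled to HPLC analyzed pure standards run in mixtures of ~100 molecules. The Zorbax Extend-C18 column (2.1 × 50 mm, 1.8 μm) was operated at 100 μL/min with water and acetonitrile, each containing 0.1% formic acid. The dead volume was 40 μL and the dwell volume 900 μL. Retention time came from adduct peaks that were computationally picked and individually inspected by hand.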

| RP-LC retention time [s] | SMILES |
| --- | --- |
| 648 | CCCNC(=O)C1CCCN(c2ccc(SCC(=O)NCc3ccccc3)nn2)C1 (stereo unspecified) |
| 803 | CC1=C(c2ccc(C)cc2)S(=O)(=O)N=C1N1CCCN(C(=O)NCc2ccco2)CC1 |
| 906 | c1ccc(-c2ccc(C(c3ccccc3)n3ccnc3)cc2)cc1 (stereo unspecified) |
| 627 | CCN(CC)C(=O)c1cccnc1 |
| 748 | CCOC(=O)c1cccc(Nc2c(-c3cccc(O)c3)nc3cnccn23)c1 |
| 590 | COc1ccc(C)cc1N1C(=O)CC(N2CCC(C(N)=O)CC2)C1=O (stereo unspecified) |
| 839 | CCc1noc(-c2ccnc(-n3cnc(C(=O)NC4CCCC4)c3)c2)n1 |
| 684 | CCCS(=O)(=O)N1CCC(c2nnc(C3CC3)s2)CC1 |
| 630 | Cc1cc(C)n(CC(=O)N(C)C2CCc3nn(CC4CC4)c(=O)n3CC2)n1 (stereo unspecified) |
| 1090 | Cc1ccccc1-c1noc(C2CC(=O)N(c3ccc(Cl)cc3)C2)n1 (stereo unspecified) |
| 830 | Cc1ccc(C)c(NC(=O)c2csc(-c3ccc(N4CCCC4)nc3)n2)c1 |
| 601 | CC(C)n1c(N2CCN(C(=O)c3ccncc3)CC2)cc(=O)n(C(C)C)c1=O |
| 968 | CC(=O)c1ccc(NC(=O)C(C)Oc2cc(C(F)(F)F)c3c(C)nn(C)c3n2)cc1 (stereo unspecified) |
| 686 | Cc1ccsc1C(=O)N1CCCn2cc(-c3ccccc3)nc21 |
| 993 | COc1ccc(Br)cc1CNC(=O)CCC(=O)N1Cc2cccn2-c2ccccc21 |
| 695 | O=C(Cn1cnc(-c2noc(-c3ccncc3)n2)c1)NCc1ccc(Cl)cc1 |
| 633 | CNC(=O)c1ccc(-c2nc3cc(NS(=O)(=O)c4ccccc4Cl)ccc3n2C)cc1 |
| 604 | O=C(c1ccc(CS(=O)c2ccccc2Cl)o1)N1CCN(c2ccccn2)CC1 (stereo unspecified) |
| 673 | COc1ccccc1-c1nc2cnccn2c1NCCC(=O)NC1CCCCC1 |
| 932 | CCCN1CCCCc2cc(C(=O)NCC(F)F)sc21 |
| 706 | Cc1ccc(Cn2c(=O)c(N3CCN(C(=O)NCc4ccco4)CC3)nc3cccnc32)cc1 |
| 1080 | CCOC(=O)C1CCN(c2ncnc3c2cnn3-c2cccc(C)c2)CC1 |

| RP-LC retention time [s] | SMILES |
| --- | --- |
| 1130 | O=S(=O)(c1cccc(-c2nc(-c3ccccc3)no2)c1)N1CCCC1 |
| 990 | CCCn1ccc2sc(C)c(C(=O)NCc3cccc(Cl)c3)c2c1=O |
| 566 | CC(O)CCC(=O)NCCc1nc2ccccc2n1Cc1ccccc1F (stereo unspecified) |
| 760 | CCn1c(=O)c(=O)n(CC(=O)NC2CCCCCC2)c2cccnc21 |
| 571 | CCCNC(=O)C1CCCN(c2nnc3c(Cl)cccn23)C1 (stereo unspecified) |
| 750 | CCCNC(=O)c1ncn2c1C(=O)N(CCC)C(C)(C(=O)NCc1ccc(C)cc1)C2 (stereo unspecified) |
| 958 | COc1ccc(-c2noc(-c3ncn4c3COC(c3ccc(F)cc3)C4)n2)cc1OC (stereo unspecified) |
| 1030 | CCOC(=O)c1[nH]c(C)c(C(=O)C(C)N(CC(C)C)C(=O)c2ccc(C)cc2)c1C (stereo unspecified) |
| 732 | C[C@@H](O)[C@H]1C(=O)N2C(C(=O)OCOC(=O)C(C)(C)C)=C(SC3CN(C4=NCCS4)C3)[C@H](C)[C@H]12 |
| 664 | COc1ccc(S(=O)(=O)C(CNC(=O)c2cccc([N+](=O)[O-])c2C)c2ccco2)cc1 (stereo unspecified) |
| 659 | COc1ccc(C)cc1NC(=O)N1CCN(c2ccc(-c3ccc4c(c3)OCO4)nn2)CC1 |
| 684 | CN(C)CCCNC(=O)c1cn(C)nc1S(=O)(=O)N1CCN(c2ccc(Cl)cc2)CC1 |
| 557 | CN(C)C[C@@H]1CN(Cc2cccnc2)C[C@H]1NC(=O)C1(c2ccccc2)CC1 |
| 621 | CCCn1cc(CCNC(=O)C2CC2)c2cccnc21 |
| 1200 | CC(C)C(=O)Nc1ccc(-c2nc(-c3ccc(Cl)cc3)no2)cc1 |
| 1280 | Cc1ccc(C)c(-c2coc(-c3ccc(NC(=O)C(C)(C)C)cc3)n2)c1 |
| 732 | O=C(Nc1ccc2nc(-c3ccccc3)cc(N3CCOCC3)c2c1)NC1CCCCC1 |
| 885 | O=C(Cn1cccc(-c2nc(-c3ccccc3)no2)c1=O)Nc1ccccc1Cl |
| 591 | CCn1c(=O)c2ccn(CC(=O)N3CCN(Cc4ccc5c(c4)OCO5)CC3)c2n(CC)c1=O |
| 1170 | CCc1cc(-c2csc(S(=O)(=O)N3CC=C(c4ccccc4)CC3)c2)on1 |
| 732 | Cn1c(=O)c2nc(SCCC(=O)Nc3ccc(Cl)cc3)n(C)c2n(C)c1=O |
| 626 | CCOC(=O)CNC(=O)Cn1nc2n(c(=O)c1=O)CCN2c1ccccc1 |

| RP-LC retention time [s] | SMILES |
| --- | --- |
| 978 | COC(=O)c1c(-c2ccc(Cl)cc2)noc1N1CCN(C(=O)c2ccco2)CC1 |
| 981 | COc1ccccc1NC(=O)c1cc2c(=O)oc3ccccc3c2n1C |
| 666 | CC1Cc2cc(S(=O)(=O)CCC(=O)N3CCN(Cc4ccccc4)CC3)ccc2N1C(=O)C1CC1 (stereo unspecified) |
| 752 | O=C(CN1CCN(Cc2ccccc2)C(=O)C1=O)N1CCN(c2ccccc2F)CC1 |
| 754 | Cc1cc(C)c(NC(=O)Cn2cnc3nc(N4CCC(C(=O)NC5CC5)CC4)sc3c2=O)c(C)c1 |
| 1100 | CC1CCCC(NC(=O)Cn2cnc3onc(-c4ccc(Cl)cc4)c3c2=O)C1C (stereo unspecified) |
| 838 | Cc1nn2c(S(=O)(=O)N3CCC(C)CC3)c(C)nc2s1 |
| 608 | COCC(C)(O)CNC(=O)COc1ccccc1OC (stereo unspecified) |
| 757 | COCc1c(C(=O)O)nnn1-c1ccc(C)c(C)c1 |
| 641 | CCCN1CCN(CCNC(=O)C2CCCN(c3ncc(-c4ccc(F)cc4)cn3)C2)CC1 (stereo unspecified) |
| 656 | COc1ccc(NC(=O)c2nc(N3CCCC3)c3c(C)cc(C)nc3n2)cc1 |
| 1300 | CCOC(=O)c1ccc2nc(C(F)(F)F)nc(NCCCc3ccccc3)c2c1 |
| 713 | CCOc1ccccc1N1CCN(C(=O)C2CCCN(c3nccc4sc(C)cc34)C2)CC1 (stereo unspecified) |
| 620 | Cc1nc(C(=O)N2CCSCC2)c(C)o1 |
| 853 | O=C(Cn1cnc(-c2nc(-c3ccccc3)cs2)c1)N1CCN(c2ccccc2)CC1 |
| 740 | Cc1ccccc1CNC(=O)C1CCN(Cc2cn(C)c3ccc(Cl)cc23)CC1 |
| 745 | O=c1c(NC2CCCCC2)nc2ccncc2n1Cc1ccccc1 |
| 716 | COc1ccc(-n2ccn3cc(-c4ccc(F)cc4F)nc3c2=O)cc1 |
| 654 | CCCN1CCN(c2cc(C(=O)O)c3cc(NC(=O)c4cccc(Cl)c4)ccc3n2)CC1 |
| 1100 | Cc1ccc(-c2nnc(-c3cccc(S(=O)(=O)N4CCSCC4)c3)o2)cc1 |
| 764 | COc1ccc(Cl)cc1NC(=O)N1CCC(C(=O)Nc2nccs2)CC1 |
| 706 | O=C(NCc1ccc2c(c1)OCO2)C1CCN(C(=O)c2ccccc2)CC1 |
